Results as given in article PMC10579241, “Impact of trifluoromethyl and sulfonyl groups on the biological activity of novel aryl-urea derivatives: synthesis, in-vitro, in-silico and SAR studies” (Scientific Reports, 2023).

Key:
Format in all cases: cell-based
[1] = test system: hepatocellular carcinoma cell line (HePG2); assay: cells; settings: Homo sapiens, 48 h; for mortality at 100 µg/mL: 100 μg/mL
colon cancer (HCT116) = assay: cells; settings: Homo sapiens, HCT-116, 48 h, 100 μg/mL
skin cancer (A431) = assay: cells; settings: Homo sapiens, A-431, 100 μg/mL, 48 h
Candida albicans = assay: Agar well diffusion, C. albicans
Bacillus mycoides = assay: microbe, parasite or virus in culture
[2] = test system: osteosarcoma cell line (HOS); assay: cells; settings: Homo sapiens, 48 h, 100 μg/mL
[3] = test system: human lung carcinoma (A549); assay: cells; settings: A549, 48 h, 100 μg/mL
[4] = test system: pancreatic cancer cell line (PACA2); assay: cells; settings: Homo sapiens, PaCa-2, 48 h, 100 μg/mL
Escherichia coli = assay: Agar well diffusion, E. coli
prostate cancer (PC3) = assay: cells; settings: Homo sapiens, 48 h, 100 μg/mL
in vitro = settings: human, BJ1 normal skin fibroblast cells, 100 μg/mL
[5] = Candida albicans, read-out: Inhibition zones diameter
[6] = Bacillus mycoides, read-out: Inhibition zones diameter
[7] = Escherichia coli, read-out: Inhibition zones diameter
[8] = Candida albicans, C. albicans, reference antibiotic 10 mcg, read-out: Inhibition zones diameter
[9] = Escherichia coli, E. coli, reference antibiotic 10 mcg, read-out: Inhibition zones diameter

Molecule	mortality at 100 µg/mL [1] [%]	mortality at 100 µg/mL (colon cancer (HCT116)) [%]	mortality at 100 µg/mL (skin cancer (A431)) [%]	zone of inhibition at 10000 µg/mL (Candida albicans; [5]) [mm]	zone of inhibition at 10000 µg/mL (Bacillus mycoides; [6]) [mm]	mortality at 100 µg/mL [2] [%]	mortality at 100 µg/mL [3] [%]	mortality at 100 µg/mL [4] [%]	zone of inhibition at 10000 µg/mL (Escherichia coli; [7]) [mm]	mortality at 100 µg/mL (prostate cancer (PC3)) [%]	zone of inhibition at 10 µg/disc (Candida albicans; [8]) [mm]	zone of inhibition at 10 µg/disc (Bacillus mycoides; [6]) [mm]	zone of inhibition at 10 µg/disc (Escherichia coli; [9]) [mm]	further results
COc1cc(NC(=O)Nc2ccc(C)cc2)cc(OC)c1 [Compound 16, 1-[3,5-Dimethoxyphenyl]-3-(p-tolyl)urea]	34.2 ± 0.13	5.9 ± 0.78	40.3 ± 1.22	16 ± 0.95	16 ± 0.97	> 50	35.9 ± 0.7	> 50	16 ± 0.35	44.6 ± 0.25				
CC[C@H]1OC(=O)[C@H](C)[C@@H](O[C@H]2C[C@@](C)(OC)[C@@H](O)[C@H](C)O2)[C@H](C)[C@@H](O[C@@H]2O[C@H](C)C[C@H](N(C)C)[C@H]2O)[C@](C)(O)C[C@@H](C)C(=O)[C@H](C)[C@@H](O)[C@]1(C)O [Erythromycin, reference compound]														zone of inhibition at 15 µg/disc (Candida albicans; Candida albicans, C. albicans, reference antibiotic 15 mcg, read-out: Inhibition zones diameter): 25 mm; zone of inhibition at 15 µg/disc (Bacillus mycoides; [6]): 17 ± 0.15 mm; zone of inhibition at 15 µg/disc (Escherichia coli; Escherichia coli, E. coli, reference antibiotic 15 mcg, read-out: Inhibition zones diameter): 29 ± 2.13 mm
NC[C@H]1O[C@H](O[C@H]2[C@H](O)[C@@H](O[C@H]3O[C@H](CO)[C@@H](O)[C@H](N)[C@H]3O)[C@H](N)C[C@@H]2N)[C@H](N)C[C@@H]1O [Tobramycin, reference compound]											12 ± 0.61	10 ± 0.31	13 ± 0.22	
Cc1ccc(NC(=O)Nc2ccc(C(F)(F)F)cc2)cc1 [Compound 13, 1-(p-Tolyl)-3-[4-(trifluoromethyl)phenyl]urea]	100	11.5 ± 1.19	1.3 ± 0.78	18 ± 0.66	16 ± 0.41	~74.3	3.5 ± 0.55	35.8 ± 0.91	18 ± 1.84	47.2 ± 0.63				IC50 ([1]; MTT): 121.7 ± 0.85 µM; mortality at 48 h, 100 µg/mL (in vitro): 84.2 ± 1.61%
CC1(C)S[C@@H]2[C@H](NC(=O)[C@H](N)c3ccccc3)C(=O)N2[C@H]1C(=O)O [Ampicillin, reference compound]											14 ± 0.25	12 ± 0.93	20 ± 1.05	
Colstin [reference compound]														Inhibition zones diameter (Candida albicans; C. albicans, reference antibiotic 10 mcg): 0 mm; Inhibition zones diameter (Bacillus mycoides): 0 mm; Inhibition zones diameter (Escherichia coli; E. coli, reference antibiotic 10 mcg): 0 mm
